In ChEMBL document CHEMBL6120968, “Discovery of Thiadiazoleamide Derivatives as Potent, Selective, and Orally Available Antagonists Disrupting Androgen Receptor Homodimer” (J Med Chem, 2024):

Key:
Androgen receptor [1] = target: T1, Androgen receptor (Homo sapiens, UniProt P10275); experiment: Antagonist activity at Androgen receptor in human LNCaP cells transfected with ARR2PB-eGFP incubated for 3 days by synergy H1 microplate reader analysis; assay type: cell-based
T1 sequence (P10275 whole entry): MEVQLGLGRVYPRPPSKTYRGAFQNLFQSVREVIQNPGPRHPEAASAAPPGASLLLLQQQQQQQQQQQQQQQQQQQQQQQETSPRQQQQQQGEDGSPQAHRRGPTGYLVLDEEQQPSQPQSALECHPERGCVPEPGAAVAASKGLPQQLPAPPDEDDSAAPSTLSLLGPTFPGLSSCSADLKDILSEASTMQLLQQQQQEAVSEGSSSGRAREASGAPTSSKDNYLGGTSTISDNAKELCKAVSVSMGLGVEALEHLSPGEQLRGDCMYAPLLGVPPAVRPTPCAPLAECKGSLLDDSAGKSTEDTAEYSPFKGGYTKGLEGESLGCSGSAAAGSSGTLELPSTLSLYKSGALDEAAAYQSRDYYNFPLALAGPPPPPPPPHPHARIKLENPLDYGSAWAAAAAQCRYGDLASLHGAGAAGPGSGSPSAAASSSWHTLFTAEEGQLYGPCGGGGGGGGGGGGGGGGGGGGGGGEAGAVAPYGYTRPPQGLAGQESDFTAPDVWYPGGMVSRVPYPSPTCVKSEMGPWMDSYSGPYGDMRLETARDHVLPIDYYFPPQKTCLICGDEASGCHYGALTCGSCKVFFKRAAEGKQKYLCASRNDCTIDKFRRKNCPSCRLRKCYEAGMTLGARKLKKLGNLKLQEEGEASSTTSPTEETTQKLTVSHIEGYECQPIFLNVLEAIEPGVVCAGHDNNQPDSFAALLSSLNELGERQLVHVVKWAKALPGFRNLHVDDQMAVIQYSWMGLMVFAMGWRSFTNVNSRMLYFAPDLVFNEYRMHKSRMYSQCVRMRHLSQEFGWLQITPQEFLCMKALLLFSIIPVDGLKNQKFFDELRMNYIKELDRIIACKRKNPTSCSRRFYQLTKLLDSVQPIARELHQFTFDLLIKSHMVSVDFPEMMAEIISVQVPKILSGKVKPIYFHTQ

Androgen receptor [2] = target: Androgen receptor (Homo sapiens, UniProt P10275, F877L); experiment: Antagonist activity at Androgen receptor F877L mutant in human HEK293T cells cotransfected with MMTV-luc and renilla plasmid incubated for 24 hrs by Dual luciferase assay; assay type: cell-based
[3] = Oral bioavailability in rat at 20 mg/kg by LC-MS/MS analysis; assay type: ADME, organism-based; details: in vivo
[4] = MRTlast in rat at 20 mg/kg, po by LC-MS/MS analysis; assay type: ADME, organism-based; details: in vivo
[5] = Microsomal stability in rat liver microsome assessed as half life measured upto 60 mins in presence of NADPH and UDPGA by HPLC-MS/MS analysis; assay type: ADME; details: liver microsomes
[6] = Microsomal stability in monkey liver microsome assessed as parent compound remaining at 60 mins in presence of NADPH and UDPGA by HPLC-MS/MS analysis; assay type: ADME, Macaca mulatta; details: rhesus monkey, liver microsomes, read-out: Stability
[7] = Cmax in rat at 20 mg/kg, iv by LC-MS/MS analysis; assay type: ADME, organism-based; details: in vivo
NIH3T3 = experiment: Antiproliferative activity against mouse 3T3 cells assessed as reduction in cell viability incubated for 3 days by MTT assay; assay type: toxicity, cell-based; details: nih3t3, 72 h, time 3 day
[8] = Tmax in rat at 20 mg/kg, po by LC-MS/MS analysis; assay type: ADME, organism-based; details: in vivo
[9] = Microsomal stability in rat liver microsome assessed as intrinsic clearance measured upto 60 mins in presence of NADPH and UDPGA by HPLC-MS/MS analysis; assay type: ADME; details: liver microsomes, read-out: CLH
[10] = Observed apparent volume of distribution during terminal phase in rat at 20 mg/kg, iv by LC-MS/MS analysis; assay type: ADME, organism-based; details: in vivo
[11] = Toxicity in male CB17.SCID mouse implanted with human LNCaP cells assessed as body weight loss at 40 mg/kg, po measured upto 30 days; assay type: organism-based; details: in vivo, 720 h, time < 30 day
[12] = Acute toxicity in po dosed male CB17.SCID mouse implanted with human LNCaP cells assessed as body weight loss measured within 14 days; assay type: organism-based; details: in vivo, time 14 day
[13] = AUC (0 to infinity) in rat at 20 mg/kg, po by LC-MS/MS analysis; assay type: ADME, organism-based; details: in vivo
[14] = target: T2, Mineralocorticoid receptor (Homo sapiens, UniProt P08235); experiment: Agonist activity at Mineralocorticoid receptor (unknown origin)
T2 sequence (P08235 whole entry): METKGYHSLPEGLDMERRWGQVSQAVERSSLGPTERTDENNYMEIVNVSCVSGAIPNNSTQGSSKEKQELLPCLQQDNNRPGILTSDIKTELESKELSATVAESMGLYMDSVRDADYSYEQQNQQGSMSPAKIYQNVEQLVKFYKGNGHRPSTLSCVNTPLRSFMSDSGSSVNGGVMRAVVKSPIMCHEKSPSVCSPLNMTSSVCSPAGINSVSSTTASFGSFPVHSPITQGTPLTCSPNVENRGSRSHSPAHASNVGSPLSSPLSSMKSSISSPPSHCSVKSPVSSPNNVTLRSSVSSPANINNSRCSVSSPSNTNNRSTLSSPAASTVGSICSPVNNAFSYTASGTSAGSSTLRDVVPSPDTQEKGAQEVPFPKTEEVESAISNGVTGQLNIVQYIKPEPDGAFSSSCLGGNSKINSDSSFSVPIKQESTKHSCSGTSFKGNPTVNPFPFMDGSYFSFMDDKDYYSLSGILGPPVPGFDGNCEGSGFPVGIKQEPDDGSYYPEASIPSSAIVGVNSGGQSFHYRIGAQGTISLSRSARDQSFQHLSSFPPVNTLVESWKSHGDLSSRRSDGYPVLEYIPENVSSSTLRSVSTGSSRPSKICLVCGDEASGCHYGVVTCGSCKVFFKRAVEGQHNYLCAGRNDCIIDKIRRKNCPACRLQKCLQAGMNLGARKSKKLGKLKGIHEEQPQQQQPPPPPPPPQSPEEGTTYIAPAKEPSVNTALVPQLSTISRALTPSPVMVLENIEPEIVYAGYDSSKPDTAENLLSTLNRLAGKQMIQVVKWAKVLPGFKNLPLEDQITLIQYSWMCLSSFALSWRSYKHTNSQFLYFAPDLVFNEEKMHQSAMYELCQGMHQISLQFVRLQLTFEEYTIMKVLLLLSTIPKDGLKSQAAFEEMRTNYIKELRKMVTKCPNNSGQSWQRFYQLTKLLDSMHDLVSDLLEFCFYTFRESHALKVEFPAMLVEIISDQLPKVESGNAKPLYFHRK

[15] = Observed apparent oral clearance in rat at 20 mg/kg, iv by LC-MS/MS analysis; assay type: ADME, organism-based; details: in vivo
[16] = Microsomal stability in human liver microsome assessed as half life measured upto 60 mins in presence of NADPH and UDPGA by HPLC-MS/MS analysis; assay type: ADME; details: liver microsomes
Androgen receptor [17] = target: Androgen receptor (Homo sapiens, UniProt P10275, W742C); experiment: Antagonist activity at Androgen receptor W742C mutant in human HEK293T cells cotransfected with MMTV-luc and renilla plasmid incubated for 24 hrs by Dual luciferase assay; assay type: cell-based
Androgen receptor (Homo sapiens, UniProt P10275, W742C), sequence (P10275 whole entry W742C): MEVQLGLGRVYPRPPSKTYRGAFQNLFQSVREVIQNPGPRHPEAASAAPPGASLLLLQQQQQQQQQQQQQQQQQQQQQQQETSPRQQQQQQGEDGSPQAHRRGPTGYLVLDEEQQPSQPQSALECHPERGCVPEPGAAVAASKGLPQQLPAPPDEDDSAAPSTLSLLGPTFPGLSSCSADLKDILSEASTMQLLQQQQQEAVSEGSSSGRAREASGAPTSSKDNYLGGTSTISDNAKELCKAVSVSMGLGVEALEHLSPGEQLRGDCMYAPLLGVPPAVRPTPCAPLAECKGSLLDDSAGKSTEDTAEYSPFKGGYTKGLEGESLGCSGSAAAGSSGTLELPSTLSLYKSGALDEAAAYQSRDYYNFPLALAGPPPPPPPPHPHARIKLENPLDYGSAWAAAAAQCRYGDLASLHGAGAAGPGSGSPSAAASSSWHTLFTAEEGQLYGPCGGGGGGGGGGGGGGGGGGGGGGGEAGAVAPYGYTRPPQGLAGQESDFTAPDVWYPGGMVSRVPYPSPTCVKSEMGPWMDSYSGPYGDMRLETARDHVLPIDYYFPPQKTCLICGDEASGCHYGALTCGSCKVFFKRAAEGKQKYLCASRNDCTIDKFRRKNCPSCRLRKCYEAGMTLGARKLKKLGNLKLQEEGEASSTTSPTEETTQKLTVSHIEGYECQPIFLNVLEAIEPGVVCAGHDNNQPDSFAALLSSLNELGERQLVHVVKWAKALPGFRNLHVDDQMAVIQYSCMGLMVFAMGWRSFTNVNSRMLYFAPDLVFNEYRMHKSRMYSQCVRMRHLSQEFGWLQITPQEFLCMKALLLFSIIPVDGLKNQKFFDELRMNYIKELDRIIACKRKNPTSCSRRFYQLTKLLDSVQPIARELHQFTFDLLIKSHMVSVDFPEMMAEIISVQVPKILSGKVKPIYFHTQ

Androgen receptor (Homo sapiens, UniProt P10275, F877L), sequence (P10275 whole entry F877L): as the sequence (P10275 whole entry W742C) above, with C742W, F877L counted along it

SMILES: Cc1oc(-c2cccc(C(F)(F)F)c2)cc1C(=O)Nc1nc(CN2CCOCC2)ns1
- IC50 (Androgen receptor [1]): 18 nM
- IC50 (Androgen receptor [2]): 10 nM
- bioavailability [3]: 61.5%
- MRT last [4]: 6.65 h
- half-life [5]: 0.494 h
- remaining at 1 h [6]: 55.1%
- Cmax [7]: 8450 ng/mL
- Activity (NIH3T3): Non-toxic
- Tmax [8]: 3.33 h
- microsomal CLint [9]: 23.4 µL/min/mg
- Vz/F_obs [10]: 6.8 L/kg
- Activity [11]: Non-toxic
- LD50 at 336 h [12]: 1250 mg/kg
- AUC(0-inf) [13]: 22100 ng·h/mL
- IC50 [14]: > 10000 nM
- CL/F [15]: 10.2 mL/min/kg
- half-life [16]: 0.618 h
- IC50 (Androgen receptor [17]): 240 nM
